Experimental data published in US8999974B2, “Acyl piperazine derivatives as TTX-S blockers” (Raqualia Pharma Inc., priority 2010, dated 2015).

biological target: T1, human NaV1.3 (Homo sapiens, UniProt Q9NY46); assay: FRET assay (EFS, FDSS) on HEK293 cells expressing human NaV1.3 channels; format: cell-based; settings: FRET assay, HEK293 cells expressing human NaV1.3; read-out: IC50 against Nav1.3
T1 construct: expressed in transfected cells; host or cells: HEK293
Method: This screen was used to determine the effects of compounds on human NaV1.3, human Nav1.7, and human Nav1.5 channels, utilising electrical field stimulation (EFS) system in 96-well plate format on FDSS (Hamamatsu Photonics) platform. The change of membrane potential was monitored with FRET dye pair, oxonol (DiSBAC2(3)) and coumarin (CC2-DMPE).
Each HEK293 cells expressing human NaV1.3 channels and HEK293 cells expressing human NaV1.5 channels were grown in T225 flasks, in a 5% CO2 humidified incubator to about 80% confluence. Media composition consisted of Dulbecco's Modified Eagle Medium (high glucose), 10% FCS, 100 units/ml Penicillin, 100 microgram/ml Streptomycin and 500 microgram/ml Geneticine.
Protocol: • Seeded each cell lines (1×10^5 cells/well) into poly-D-lysine coated 96-well plates prior to experimentation. • Incubated at 37° C. in 5% CO2 for 24 hours. • Washed each well with assay buffer (140 mM NaCl, 4.5 mM KCl, 10 mM D-Glucose, 2 mM CaCl2, 1 mM MgCl2, 10 mM HEPES, pH 7.4 adjusted with NaOH) twice. • Added 1st loading solution containing 10 microM CC2-DMPE and 0.06% Pluronic F-127 in assay buffer. • Incubated the plate at room temperature in dark for 1 hour. • Removed 1st loading solution and added 2nd loading solution containing 15 microM DiSBAC2(3), 0.555 mM VABSC-1 and 0.004% Pluronic F-127 in assay buffer. • Placed the plate under the dark at room temperature for 25 minutes. • Added compound solutions into the assay plate. • Set the assay plate in FDSS and placed an EFS device on the plate. • Measured EFS-induced fluorescent response by FDSS.
The data were analyzed and reported as normalized ratios of intensities measured at […]. The process of calculating these ratios was performed as follows:
[formula] This analysis was performed using a computerized specific program designed for FDSS generated data. Fluorescence ratio values were plotted using XLfit to determine an IC50 value for each compound.

T1 sequence (Q9NY46 whole entry): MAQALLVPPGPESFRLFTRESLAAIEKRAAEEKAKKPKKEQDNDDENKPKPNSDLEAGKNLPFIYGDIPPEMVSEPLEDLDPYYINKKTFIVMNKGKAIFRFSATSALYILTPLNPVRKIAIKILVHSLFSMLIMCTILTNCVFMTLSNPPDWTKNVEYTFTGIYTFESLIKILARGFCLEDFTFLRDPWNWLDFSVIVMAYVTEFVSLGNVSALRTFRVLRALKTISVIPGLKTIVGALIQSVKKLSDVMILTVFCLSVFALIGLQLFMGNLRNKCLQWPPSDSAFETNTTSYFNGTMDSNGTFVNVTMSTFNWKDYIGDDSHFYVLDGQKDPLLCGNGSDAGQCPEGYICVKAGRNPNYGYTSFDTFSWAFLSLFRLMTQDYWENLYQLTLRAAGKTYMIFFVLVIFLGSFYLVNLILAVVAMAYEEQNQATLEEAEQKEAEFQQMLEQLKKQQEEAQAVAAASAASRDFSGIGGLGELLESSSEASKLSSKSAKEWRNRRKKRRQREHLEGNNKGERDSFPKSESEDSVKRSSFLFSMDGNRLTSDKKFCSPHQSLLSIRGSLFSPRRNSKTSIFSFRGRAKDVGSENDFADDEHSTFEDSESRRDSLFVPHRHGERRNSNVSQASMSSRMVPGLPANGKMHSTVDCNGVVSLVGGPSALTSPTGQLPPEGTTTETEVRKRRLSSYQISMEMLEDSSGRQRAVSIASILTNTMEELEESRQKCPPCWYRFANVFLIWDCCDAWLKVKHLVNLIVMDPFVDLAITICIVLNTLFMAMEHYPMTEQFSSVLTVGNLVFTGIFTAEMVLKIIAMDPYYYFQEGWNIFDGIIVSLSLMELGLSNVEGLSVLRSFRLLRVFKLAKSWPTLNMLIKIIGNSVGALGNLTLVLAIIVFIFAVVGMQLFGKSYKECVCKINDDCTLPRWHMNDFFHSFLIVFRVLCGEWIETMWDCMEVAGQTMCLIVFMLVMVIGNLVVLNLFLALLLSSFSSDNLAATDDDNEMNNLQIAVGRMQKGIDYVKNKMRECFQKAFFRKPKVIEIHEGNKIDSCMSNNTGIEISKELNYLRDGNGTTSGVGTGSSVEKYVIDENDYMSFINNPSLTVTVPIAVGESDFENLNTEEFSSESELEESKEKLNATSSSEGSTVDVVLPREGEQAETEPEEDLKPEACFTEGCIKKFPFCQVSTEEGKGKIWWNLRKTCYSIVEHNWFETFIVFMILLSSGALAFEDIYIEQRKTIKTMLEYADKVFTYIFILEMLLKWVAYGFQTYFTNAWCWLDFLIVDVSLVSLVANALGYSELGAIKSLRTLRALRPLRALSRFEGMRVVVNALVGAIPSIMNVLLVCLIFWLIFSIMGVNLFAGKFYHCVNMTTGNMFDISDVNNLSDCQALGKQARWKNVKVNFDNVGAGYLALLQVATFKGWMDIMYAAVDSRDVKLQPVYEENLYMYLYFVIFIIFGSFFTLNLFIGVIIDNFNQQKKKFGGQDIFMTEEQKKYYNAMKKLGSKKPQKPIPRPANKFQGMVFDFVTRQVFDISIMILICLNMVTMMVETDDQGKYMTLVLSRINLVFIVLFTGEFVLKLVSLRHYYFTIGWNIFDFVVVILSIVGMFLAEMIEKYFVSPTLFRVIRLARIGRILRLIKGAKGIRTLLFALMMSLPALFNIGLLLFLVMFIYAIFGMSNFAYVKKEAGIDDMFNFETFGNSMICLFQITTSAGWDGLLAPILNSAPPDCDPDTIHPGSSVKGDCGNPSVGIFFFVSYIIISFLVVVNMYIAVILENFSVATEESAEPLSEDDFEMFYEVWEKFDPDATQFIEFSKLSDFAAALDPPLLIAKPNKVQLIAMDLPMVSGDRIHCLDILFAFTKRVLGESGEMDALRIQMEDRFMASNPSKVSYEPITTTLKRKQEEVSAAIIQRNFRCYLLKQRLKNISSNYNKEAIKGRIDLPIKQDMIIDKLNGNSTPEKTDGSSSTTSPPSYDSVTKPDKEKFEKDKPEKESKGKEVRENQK

IC50, < 3 µM:
CC(C)COc1cc(N2CCN(C(=O)OCc3ccccc3)CC2)ncn1 [Example 53, benzyl 4-(6-isobutoxypyrimidin-4-yl)piperazine-1-carboxylate]
CC(C)COc1cc(N2CCN(C(=O)c3ccc(-n4cccn4)nc3)CC2)ncn1 [Example 214, (6-(1H-pyrazol-1-yl)pyridin-3-yl)(4-(6-isobutoxypyrimidin-4-yl)piperazin-1-yl)methanone]
Cc1c(C(=O)N2CCN(c3cc(OCC(C)C)ncn3)CC2)nnn1-c1ccccc1 [Example 136, (4-(6-isobutoxpyrimidin-4-yl)piperazin-1-yl)(5-methyl-1-phenyl-1H-1,2,3-triazol-4-yl)methanone]
CC(C)COc1cc(N2CCN(C(=O)COc3cccc(F)c3)CC2)ncn1 [Example 96, 2-(3-fluorophenoxy)-1-(4-(6-isobutoxypyrimidin-4-yl)piperazin-1-yl)ethanone]
O=C(Cc1noc2ccccc12)N1CCN(c2cc(OC3CCC3)ncn2)CC1 [Example 111, 2-(benzo[d]isoxazol-3-yl)-1-(4-(6-cyclobutoxypyrimidin-4-yl)piperazin-1-yl)ethanone]
Cc1c(C(=O)N2CCN(c3cc(OCC(C)C)ncn3)CC2)nnn1-c1ccc(F)cc1 [Example 202, (1-(4-fluorophenyl)-5-methyl-1H-1,2,3-triazol-4-yl)(4-(6-isobutoxypyrimidin-4-yl)piperazin-1-yl)methanone]
Cc1cc(C(=O)N2CCN(c3cc(OCC(C)C)ncn3)CC2)nn1-c1ccccc1 [Example 91]
CC(C)COc1cc(N2CCN(C(=O)COc3cncc(Cl)c3)CC2)ncn1 [Example 144, 2-((5-chloropyridin-3-yl)oxy)-1-(4-(6-isobutoxypyrimidin-4-yl)piperazin-1-yl)ethanone]
Cn1nc(C(=O)N2CCN(c3cc(OC4CCC4)ncn3)CC2)c2ccccc21 [Example 38, (4-(6-cyclobutoxypyrimidin-4-yl)piperazin-1-yl)(1-methyl-1H-indazol-3-yl)methanone]
CC(C)COc1cc(N2CCN(C(=O)CCN3Cc4ccccc4C3=O)CC2)ncn1 [Example 61, 2-(3-(4-(6-isobutoxypyrimidin-4-yl)piperazin-1-yl)-3-oxopropyl)isoindolin-1-one]
CC(C)COc1cc(N2CCN(C(=O)c3cc(C(F)(F)F)nn3C)CC2)ncn1 [Example 14, (4-(6-isobutoxypyrimidin-4-yl)piperazin-1-yl)(1-methyl-3-(trifluoromethyl)-1H-pyrazol-5-yl)methanone]
CC(C)COc1cc(N2CCN(C(=O)c3cnn(-c4ccccc4)c3N)CC2)ncn1 [Example 184, (5-amino-1-phenyl-1H-pyrazol-4-yl)(4-(6-isobutoxypyrimidin-4-yl)piperazin-1-yl)methanone]
CCOc1cc(N2CCN(C(=O)c3csc(-c4ccccn4)n3)CC2)ncn1 [Example 241, (4-(6-ethoxypyrimidin-4-yl)piperazin-1-yl)(2-(pyridin-2-yl)thiazol-4-yl)methanone]
O=C(CN1CCc2ccccc2C1=O)N1CCN(c2cc(OCC(F)(F)F)ncn2)CC1 [Example 157, 2-(2-oxo-2-(4-(6-(2,2,2-trifluoroethoxy)pyrimidin-4-yl)piperazin-1-yl)ethyl)-3,4-dihydroisoquinolin-1(2H)-one]
CC(C)COc1cc(N2CCN(C(=O)COc3cccc4ccncc34)CC2)ncn1 [Example 128, 1-(4-(6-isobutoxypyrimidin-4-yl)piperazin-1-yl)-2-(isoquinolin-8-yloxy)ethanone]
Cc1c(C(=O)N2CCN(c3cc(OC4CCC4)ncn3)CC2)nnn1-c1ccc(F)cc1 [Example 204, (4-(6-cyclobutoxypyrimidin-4-yl)piperazin-1-yl)(1-(4-fluorophenyl)-5-methyl-1H-1,2,3-triazol-4-yl)methanone]
